Data taken from patent publication US20250221960A1, “COMPOSITIONS AND METHODS FOR THE TREATMENT OF DEPRESSION” (Janssen Pharmaceuticals, Inc., priority 2022, published 2025).

Tests used:
[1] = test system: subjects with MDD; assay: HAM-A6 total score (anxiety), Example 1; type: in vivo, human; details: Treatment Week 6
Text: v. To investigate the effect of aticaprant on symptoms of anxiety using the HAM-A and on core symptoms of anxiety using the HAM-A6 subscale.
• (i) Depression: Montgomery-Åsberg Depression Rating Scale (MADRS), Clinical Global Impression-Severity (CGI-S), Symptoms of Major Depressive Disorder Scale (SMDDS), and Self-assessment of treatment experience (SATE) • (ii) Anhedonia: Snaith-Hamilton Pleasure Scale (SHAPS) • (iii) Anxiety: Structured Interview Guide for the Hamilton Anxiety scale (SIGH-A) and HAM-A6 • (iv) Effects on Cognition: The Cognitive and Physical Functioning Questionnaire (CPFQ) • (v) Safety assessments

[2] = test system: subjects with MDD; assay: Biomarker signature subtyping of MADRS treatment outcome (Example 4); type: in vivo, human
Experimental: Serum or plasma was prepared from the samples of venous blood. Measurements of human CRP and IL-6-R were performed in serum using an MSD Sector 6000 with the kits #K151STD and K151ALC (MesoScale Discovery, Rockville, MD). Human TNFα was quantified in serum using a Simoa HD-1 analyzer with kit #143 (Quanterix, Lexington, MA). Human Dynorphin was assayed in plasma using a SpectraMax M plate reader (Molecular devices, San Jose, CA) with kit #CSB-E09128h (Cusabio, Wuhan, China). All measures were performed according to kit manufacturer's recommendations.
As used in the following biomarker assay analysis, treatment (TRT) refers to treatment with an SSRI/SNRI plus Aticaprant and placebo (PBO) refers to treatment with an SSRI/SNRI plus placebo.
Treatment Outcome: Change in clinical scale at the of end of the double period. Negative values indicate improvement in depression levels relative to baseline levels. The more negative the change, the greater the improvement.
Sig^Pos: Patient meeting the criteria defined by signature of biomarkers and/or clinical scales.
3 MM: Inflammatory biomarker signature with positive status defined by CRP>3 mg/L and (TNFα>4 pg/mL or sIL6R>25 ng/ml).
4 MM: Inflammatory biomarker signature with positive status defined by high dynorphin (δ1) or 3 MM with moderate dynorphin (δ2) subtypes, specifically: DYN>δ1 pg/mL or (DYN>δ2 pg/mL and CRP>3 mg/L and (TNFα>4 pg/ml or sIL6R>25 ng/ml)). In certain embodiments, the 4 MM DYN cutoffs are as follows: Dyn>50 OR (3 MM and Dyn>8); Dyn>24 OR (3 MM and Dyn>8), or Dyn>11.4 and 3 MM.
TE Sig^Pos: Treatment Effect in Signature Positive group: (Average mean MADRS change in placebo-Average mean MADRS change in treatment) in Sig^Pos group.
TE Sig^Neg: Treatment Effect in Signature Negative group.
Sig Adv: Signature Advantage (interaction) Difference in TE between signature groups: Sig Adv=TE Sig^Pos−TE Sig^Neg.
The effect of biomarker signatures on patient response to treatment is summarized in graphical form using two panel box plots in FIG. 25. […] Red color represents placebo and teal represents aticaprant. Rectangular boxes span Diamonds and error bars represent mean and 95% Confidence Interval (CI) of treatment outcome by treatment arm and biomarker signature status. In the signature positive group, the treatment effect (difference in average treatment outcome between treatment arms) was of 6.29 MADRS points (One sided p=0.07, effect size=0.75). While in the signature negative groups, the treatment effect was 1.59 MADRS points. In other words, subjects who are biomarker signature positive improve by an additional 4.7 points […] relative to placebo when treated with aticaprant, compared to subjects who are biomarker signature negative. This signature advantage of 4.7 MADRS points represents the interaction of biomarker signature status with treatment effect. Treatment effects, signature advantage, and corresponding p values are assessed using a linear regression model for treatment outcome with independent variables for treatment, biomarker signature status, and their interaction. All p-values are one sided. Significant is defined as nominal one sided p value <0.05.

`Cc1cc(C)cc(C2CCCN2Cc2ccc(Oc3ccc(C(N)=O)cc3F)cc2)c1` (centres unmarked) [aticaprant, 3-fluoro-4-4-2-(3,5-dimethylphenyl) pyrrolidin-1-yl-methylphenoxybenzamide] was tested, and the “improvement in HAMA6 score vs. placebo” value [1] was “greater improvement”, the “treatment effect in biomarker signature positive patients” value ([2]; 3 MM and DYN>δ signature (δ=11.5)) was “very large treatment effect” and the “average aticaprant response in biomarker signature negative patients” value ([2]; 3 MM or DYN signature negative) was “worse than that of placebo”. The signature advantage ([2]; 3 MM or high DYN signature, in more than 60% of patients) was 3-8 point, the “signature advantage (TE SigPos - TE SigNeg)” value ([2]; 3 MM signature) was 4.7 MADRS points and the “effect size in signature positive group” value ([2]; 3 MM signature positive) was 0.75. For the same molecule, the “treatment effect in signature positive group (placebo - treatment MADRS change)” value ([2]; 3 MM signature positive (21% of MDD), end of double-blind) was 6.3 MADRS points, the “improvement compared to biomarker signature negative counterpart” value ([2]; 4 MM signature (63% of MDD)) was 6 points and the “MADRS points difference at end DB relative to placebo” value ([2]; 4 MM signature positive (63% of MDD)) was 4.6 MADRS points. For the same molecule, the “treatment effects of 4 MM signatures” value ([2]; DYN>δ1 or (3 MM and DYN>δ2), range of δ1) was ≥ 4.5 MADRS points and the “signature advantage of 4 MM signatures” value ([2]; in 38-63% of patients) was > 5 point.
